Values of other authors in US8685449B2, “Pharmaceutical composition with anti-obesity activity comprising a premixture of pure orlistat and preparation process” (Laboratorios Bago S.A., priority 2010, dated 2014).

Conditions: particularly in a wet environment and at a temperature above 35° C., and inclusive in a dry environment

## CCCCCCCCCCC[C@@H](C[C@@H]1OC(=O)[C@H]1CCCCCC)OC(=O)[C@H](CC(C)C)NC=O [orlistat, (−) tetrahydrolipstatin]
  stability (hydrolisis and thermal degradation): susceptible to hydrolisis and thermal degradation
